Data as given in US20200062696A1, “COMPOSITIONS AND METHODS FOR INHIBITING RETICULON 4” (THE REGENTS OF THE UNIVERSITY OF CALIFORNIA, priority 2017, published 2020).
“Also recorded” adds a separate entry of the source.

Columns and labels:
pure human RTN4 protein = target: T1, pure human RTN4 protein (Homo sapiens, UniProt Q9NQC3); experiment: Gel-based ABPP competition against IAyne labeling of pure human RTN4 protein; type: binding
T1 construct: purchased Fisher Scientific
T1 sequence (Q9NQC3 1-1192): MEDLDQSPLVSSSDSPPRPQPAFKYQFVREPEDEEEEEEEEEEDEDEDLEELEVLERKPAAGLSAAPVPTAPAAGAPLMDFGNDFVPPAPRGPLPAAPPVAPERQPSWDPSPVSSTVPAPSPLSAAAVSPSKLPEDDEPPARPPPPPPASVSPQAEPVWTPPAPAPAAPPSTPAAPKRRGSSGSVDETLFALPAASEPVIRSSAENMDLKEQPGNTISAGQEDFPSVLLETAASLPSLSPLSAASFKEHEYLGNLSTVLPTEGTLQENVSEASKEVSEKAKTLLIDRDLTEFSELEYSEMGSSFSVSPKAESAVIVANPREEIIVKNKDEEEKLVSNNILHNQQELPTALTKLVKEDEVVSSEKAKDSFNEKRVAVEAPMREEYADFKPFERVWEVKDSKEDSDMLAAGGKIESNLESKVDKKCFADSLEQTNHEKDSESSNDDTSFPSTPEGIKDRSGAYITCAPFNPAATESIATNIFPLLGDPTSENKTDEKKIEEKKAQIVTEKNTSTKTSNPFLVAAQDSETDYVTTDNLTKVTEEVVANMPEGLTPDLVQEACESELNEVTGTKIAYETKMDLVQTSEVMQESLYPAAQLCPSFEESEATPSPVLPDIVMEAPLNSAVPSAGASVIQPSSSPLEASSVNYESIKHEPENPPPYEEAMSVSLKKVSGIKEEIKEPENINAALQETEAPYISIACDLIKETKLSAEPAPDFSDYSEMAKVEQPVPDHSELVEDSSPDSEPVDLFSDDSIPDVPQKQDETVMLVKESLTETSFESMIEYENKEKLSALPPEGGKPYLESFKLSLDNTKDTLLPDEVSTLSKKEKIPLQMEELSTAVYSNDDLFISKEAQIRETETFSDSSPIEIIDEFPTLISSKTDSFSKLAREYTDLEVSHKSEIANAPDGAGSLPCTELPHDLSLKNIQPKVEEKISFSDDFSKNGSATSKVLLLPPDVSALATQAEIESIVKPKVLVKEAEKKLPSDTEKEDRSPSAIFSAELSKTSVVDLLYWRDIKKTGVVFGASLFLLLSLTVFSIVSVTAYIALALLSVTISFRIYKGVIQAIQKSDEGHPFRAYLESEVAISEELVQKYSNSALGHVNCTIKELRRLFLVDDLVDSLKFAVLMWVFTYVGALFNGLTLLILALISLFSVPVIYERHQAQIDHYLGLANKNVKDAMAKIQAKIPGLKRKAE
Protocol: (§1) FIGS. 11A-11C. DKM 3-30 and analogs. (FIG. 11A) Structures of DKM 3-30 and analogs. (FIG. 11B) Gel-based ABPP analysis showing competition side-by-side competition studies of DKM 3-30, YP 1-46, and AMR 1-125 against IA-rhodamine labelling of pure human RTN4. Shown are the 50% inhibitory concentration (IC50) values for each compound. (FIG. 11C) Serum-free cell survival of U2OS (48 h) or SW620 (24 h) cells treated with DMSO vehicle or each compound (50 μM). Data in (C) are presented as mean±sem. Significance is expressed as *p<0.001 compared to vehicle-treated controls.
Gel-Based ABPP. Gel-based ABPP methods were performed as previously described^24. Recombinant RTN4 (0.06 μg) protein (RTN4-Fisher Scientific) were pre-treated with DMSO or DKM 3-30, respectively, for 1 h at 37° C. in an incubation volume of 50 μL PBS, and were subsequently treated with IAyne (10 μM final concentration) for 30 min at 37° C. CuAAC was performed to append rhodamine-azide onto IAyne probe-labeled proteins. The samples were separated by SDS/PAGE and scanned using a ChemiDoc MP (Bio-Rad Laboratories, Inc). Inhibition of target labeling was assessed by densitometry using ImageStudio Light software.

U2OS osteosarcoma cells = experiment: Serum-free cell survival of U2OS cells; type: cell-based; details: 50 μM, 48 h
Protocol: as §1
(§2) Cell Culture. SW620 cells were purchased from ATCC. SW620 cells were grown in L-15 media with 10% fetal bovine serum (FBS) in ambient CO2. U2OS cells were grown in DMEM media supplemented with 10% FBS at 37° C. with 5% CO2.
(§3) Survival and Proliferation Assays. Cells were plated the evening before the experiment, and allowed to adhere overnight. For serum-free cell survival assays, cells were plated in media not containing FBS. For cell proliferation assays, cells were plated in regular media. For the chemical genetics screen, cells were treated with either DMSO or the cysteine-reactive fragment for 48 h and cell viability was assessed by Hoescht stain using our previously described methods

[1] = system: U2OS cells expressing GFP-tagged Sec61β; experiment: ER morphology by fluorescence microscopy in U2OS cells expressing GFP-Sec61β; type: cell-based; details: DKM 3-30 50 μM (8 hr, 16 hr, time-lapse); AMR 1-125 1 μM; YP 1-46 50 μM
Protocol: Fluorescence microscopy. SW620 and U2OS cells were transiently transfected with a plasmid encoding GFP-tagged Sec61β using fuGENE6 (Roche) according to the manufacturer's instructions. Transfected cells plated on poly-L-lysine treated coverslips were treated, washed in PBS, and fixed by incubation in 4% paraformaldehyde in PBS for 10 min. Fixed cells were washed extensively in PBS and nuclei stained by addition of 4′,6-diamidino-2-phenylindole (DAPI) (Thermo Fisher Scientific) for 10 min. Coverslips were mounted using Fluoromount-G (SouthernBiotech) and visualized using a DeltaVision Elite microscope outfitted with a 60× oil immersion objective. Acquired stacks of images of fixed cells were deconvolved and analyzed using SoftWoRx and ImageJ. For time-lapse imaging of live cells, transfected cells were plated on poly-L-lysine treated glass-bottom 4-well imaging chambers (Lab-Tek II; Thermo Fisher Scientific). Imaging was performed using a DeltaVision Elite microscope encased in a chamber that was maintained at 37° C. and was continuously perfused with humidified 5% CO2. Acquired images were analyzed using SoftWoRx and ImageJ.

[2] = system: SW620 colorectal cancer cells; experiment: Serum-free cell survival of SW620 cells (Hoescht staining); type: cell-based; details: 50 μM, 24 h
[3] = system: SW620 colorectal cancer cells; experiment: as above; type: cell-based; details: Homo sapiens, SW-620, cysteine-reactive fragment 50 μM, 48 h, vs DMSO, average of n = 3/group, read-out: SW620 survival Ave
Protocol: as §2, §3

[4] = system: SW620 colorectal cancer cells; experiment: Cell proliferation of SW620 cells (Hoescht staining); type: cell-based; details: Homo sapiens, SW-620, cysteine-reactive fragment 50 μM, 48 h, vs DMSO, average of n = 3/group, read-out: SW620 proliferation Ave
Protocol: as §2, §3

## C=CC(=O)Nc1ccc(Oc2ccc(C(C)(C)C)cc2)cc1 [AMR 1-125, N-(4-(4-(tert-butyl)phenoxy)phenyl)acrylamide]
Pure human RTN4 protein; competition against probe labelling of pure human RTN4, from IC50 values of FIG. 11B
  improved potency compared to DKM 3-30: ~7 fold
U2OS osteosarcoma cells
  cell survival in U2OS cells: impaired
[1]
  ER morphology in U2OS cells: impaired; also recorded: alters ER morphology
[2]
  cell survival in SW620 cells: impaired

## C=CC(=O)NC(C)CC (stereo not drawn) [DKM 3-32, N-(sec-butyl)acrylamide]
[3]
  viability at 50 µM: 70%
[4]
  activity at 50 µM: 95%

## C=CC(=O)N1CCN(c2ccc(OC)cc2)CC1 [DKM 3-36, 1-(4-(4-methoxyphenyl)piperazin-1-yl)prop-2-en-1-one]
[3]
  viability at 50 µM: 54%
[4]
  activity at 50 µM: 97%

## C=CC(=O)NC(c1ccccc1)(c1ccccc1)c1ccccc1 [DKM 3-41, N-tritylacrylamide]
[3]
  viability at 50 µM: 55%
[4]
  activity at 50 µM: 93%

## C=CC(=O)NC/C=C(\C)CCC=C(C)C [DKM 3-42, (E)-N-(3,7-dimethylocta-2,6-dien-1-yl)acrylamide]
[3]
  viability at 50 µM: 104%
[4]
  activity at 50 µM: 112%

## C=CC(=O)NCc1ccc2c(c1)OCO2 [DKM 3-43, N-(benzo[d][1,3]dioxol-5-ylmethyl)acrylamide]
[3]
  viability at 50 µM: 52%
[4]
  activity at 50 µM: 94%

## C=CC(=O)N(c1ccccc1)c1ccccc1 [DKM 3-70, N,N-diphenylacrylamide]
[3]
  viability at 50 µM: 57%
[4]
  activity at 50 µM: 53%

## C=CC(=O)NCCCCCCCCCC [TRH 1-12, N-decylacrylamide]
[3]
  viability at 50 µM: 49%
[4]
  activity at 50 µM: 89%

## C=CC(=O)NCc1ccc(OC)cc1OC [TRH 1-13, N-(2,4-dimethoxybenzyl)acrylamide]
[3]
  viability at 50 µM: 94%
[4]
  activity at 50 µM: 128%

## C=CC(=O)Nc1ccccc1 [TRH 1-19, N-Phenylacrylamide]
[3]
  viability at 50 µM: 101%
[4]
  activity at 50 µM: 119%

## C=CC(=O)NC(C)c1ccccc1 (stereo not drawn) [TRH 1-20, N-(1-phenylethyl)acrylamide]
[3]
  viability at 50 µM: 114%
[4]
  activity at 50 µM: 121%

## C=CC(=O)N1CCCCC1CC (stereo not drawn) [TRH 1-27, 1-(2-ethylpiperidin-1-yl)prop-2-en-1-one]
[3]
  viability at 50 µM: 144%
[4]
  activity at 50 µM: 125%

## C=CC(=O)Nc1ccc(OC)cc1 [TRH 1-32, N-(4-methoxyphenyl)acrylamide]
[3]
  viability at 50 µM: 55%
[4]
  activity at 50 µM: 100%

## C=CC(=O)Nc1ccc(C(F)(F)F)cc1 [TRH 1-50, N-(4-(trifluoromethyl)phenyl)acrylamide]
[3]
  viability at 50 µM: 58%
[4]
  activity at 50 µM: 76%

## CCCN(C)C(=O)CCl [TRH 1-53, 2-Chloro-N-methyl-N-propylacetamide]
[3]
  viability at 50 µM: 69%
[4]
  activity at 50 µM: 72%

## C=CC(=O)NCc1ccccc1C [TRH 1-54, N-(2-methylbenzyl)acrylamide]
[3]
  viability at 50 µM: 175%
[4]
  activity at 50 µM: 139%

## Cc1ccccc1CNC(=O)CCl [TRH 1-55, 2-Chloro-N-(2-methylbenzyl)acetamide]
[3]
  viability at 50 µM: 47%
[4]
  activity at 50 µM: 53%

## C=CC(=O)Nc1ccc(Oc2ccc(OC)cc2)cc1 [YP 1-46, N-(4-(4-methoxyphenoxy)phenyl)acrylamide]
Pure human RTN4 protein; pure human RTN4 protein, gel-based ABPP
  displacement of IAyne labelling of RTN4: less displacement
U2OS osteosarcoma cells
  cell survival in U2OS cells: not
[1]
  ER morphology in U2OS cells: not
